# Tested on: human Peripheral Blood Mononuclear Cell (PMBC)
# Test: PBMC Assay, cytokine stimulation (IFNα)
# Format: cell-based
# Conditions: concentration at which the compound stimulated maximum IFN α production, 24 hours, read-out: IFN ECmax values
# Method: Assays were conducted to determine cytokine stimulation at 24 hours from human Peripheral Blood Mononuclear Cell (PMBC) using the compounds of the present invention. The assays were run in duplicate, with 8-point, half-log dilution curves. The compounds of the present invention were diluted from […] DMSO solution. Cell supernatants are assayed directly for IFNα and 1:10 dilution for TNFα. The assays were performed in a similar fashion as described in Bioorg. Med. Chem. Lett. 16, 4559, (2006). Specifically, cryo-preserved PBMCs were thawed and seeded 96 well plates with 750,000 cells/well in 190 μL/well cell media. The PBMCs were then incubated for 1 hour at 37° C. at 5% CO2. Then, the compounds of the present invention were added in 10 μL cell media at 8 point, half-log dilution titration. The plates were incubated at 37° C. and 5% CO2 for 24 hours and then spinned at 1200 rpm for 10 min, which was followed by collecting supernatant and storing the same at −80° C. Cytokine secretion was assayed with Luminex and Upstate multi-plex kits, using a Luminex analysis instrument. IFN ECmax value for a compound was the concentration at which the compound stimulated maximum IFN α production as determined using the assay method above.
row,SMILES,EC (max) [µM]
1,"COCCOc1nc(N)c2nc(O)n(Cc3cccc(CN4CCCC4)c3)c2n1 [Example A, 6-Amino-2-(2-methoxy-ethoxy)-9-(3-pyrrolidin-1-ylmethyl-benzyl)-9H-purin-8-ol]",< 0.005
2,COCCOc1nc(N)c2nc(O)n(Cc3cc(CN4CCCC4)cc(C(F)(F)F)c3)c2n1 [Example AQ],< 0.005
3,COCCOc1nc(N)c2nc(O)n(Cc3cc(CN4CCCCC4)cc(C(F)(F)F)c3)c2n1 [Example AS],< 0.005
4,Nc1nc(OCCC2CC2)nc2c1nc(O)n2Cc1cccc(CN2CCCC2)c1 [Example AU],< 0.005
5,Nc1nc(OCC2CCC2)nc2c1nc(O)n2Cc1cccc(CN2CCCC2)c1 [Example AV],< 0.005
6,Nc1nc(OCC2CC2)nc2c1nc(O)n2Cc1cccc(CN2CCCC2)c1 [Example AW],< 0.005
7,COCCOc1nc(N)c2nc(O)n(Cc3cccc(CNCC4CCCCC4)c3)c2n1 [Example AZ],< 0.005
8,CCCCOc1nc(N)c2nc(O)n(Cc3cccc(CN4CCC4)c3)c2n1 [Example BE],< 0.005
9,Nc1nc(OCCC(F)(F)F)nc2c1nc(O)n2Cc1cccc(CN2CCCC2)c1 [Example BH],< 0.005
10,Nc1nc(OC2CCCC2)nc2c1nc(O)n2Cc1cccc(CN2CCCC2)c1 [Example BM],< 0.005
11,"COCCOc1nc(N)c2nc(O)n(Cc3cccc(CN4CCN(C)CC4)c3)c2n1 [Example C, 6-Amino-2-(2-methoxy-ethoxy)-9-[3-(4-methyl-piperazin-1-ylmethyl)-benzyl]-9H-purin-8-ol]",< 0.005
12,"COCCOc1nc(N)c2nc(O)n(Cc3cccc(CNCC4CC4)c3)c2n1 [Example D, 6-Amino-9-{3-[(cyclopropylmethyl-amino)-methyl]-benzyl}-2-(2-methoxy-ethoxy)-9H-purin-8-ol]",< 0.005
13,"COCCOc1nc(N)c2nc(O)n(Cc3cccc(CN4CC(C)CC(C)C4)c3)c2n1 (stereo not shown) [Example F, 6-Amino-9-[3-(3,5-dimethyl-piperidin-1-ylmethyl)-benzyl]-2-(2-methoxy-ethoxy)-9H-purin-8-ol]",< 0.005
14,"COCCOc1nc(N)c2nc(O)n(Cc3cccc(CN4CCCCC4)c3)c2n1 [Example J, 6-Amino-2-(2-methoxy-ethoxy)-9-(3-piperidin-1-ylmethyl-benzyl)-9H-purin-8-ol]",< 0.005
15,"COCCOc1nc(N)c2nc(O)n(Cc3cccc(CN4CCC4)c3)c2n1 [Example N, 9-(3-(azetidin-1-ylmethyl)benzyl)-6-amino-2-(2-methoxyethoxy)-9H-purin-8-ol]",< 0.005
16,"COCCOc1nc(N)c2nc(OC(=O)OC(C)C)n(Cc3cccc(CN4CCCC4)c3)c2n1 [Example R, 9-(3-(pyrrolidin-1-ylmethyl)benzyl)-6-amino-2-(2-methoxyethoxy)-9H-purin-8-yl isopropyl carbonate]",< 0.005

# Source: patent publication US9611268B2, “Modulators of toll-like receptor 7” (Gilead Sciences, Inc., priority 2007, dated 2017)
